Activity calls are given as the source filed them. Some results are limits rather than exact numbers.

Assay [1] is described as follows: luciferase reporter signal suppression in cells – H4 neuroglioma cells, luminescence, dose response (AID 1990). In kind it is functional, cell-based.
Assay [2] is described as follows: Luminescence Cell-Based Dose Response HTS to Identify Inhibitors of 5'UTR Stem-Loop Driven Prion Protein mRNA Translation in H4 Neuroglioblastoma Cells. [Related pubchem assays: 1827 (Project Summary), 1813 (Primary HTS)]. It is filed as functional.
The nature of assay [3]: alpha-synuclein stem-loop luciferase translation blockers – H4 neuroglioma cells, luminescence, confirmation (AID 1988). It is filed as functional, cell-based.
The target in assay [4] is Mothers against decapentaplegic homolog 3 (Homo sapiens, UniProt P84022). In words: inhibitors of SMAD-driven TGF-beta signaling – dose response (AID 715). In kind it is functional.
Assay [5] addresses T1, Estrogen receptor beta (Homo sapiens, UniProt Q92731).
Assay [6] concerns the target T1, Estrogen receptor beta. In words: blockers of SRC-3 recruitment to ERβ – biochemical, ELISA, streptavidin-HRP readout, orthogonal assay, confirmation (AID 1060).
Assay [7] concerns the target Protein-tyrosine kinase 2-beta (Homo sapiens, UniProt Q14289).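 Also: potency of inhibitors of PYK2 kinase phosphorylation of poly-GT substrate.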
Assay [8] addresses Peroxisome proliferator-activated receptor gamma/Nuclear receptor corepressor 2 (Homo sapiens, UniProt P37231+Q9Y618). In words: Counterscreen for NR2E3 inverse agonists: TR-FRET-based biochemical high throughput dose response assay to identify inverse agonists of the interaction between peroxisome proliferator-activated receptor gamma (PPARg) and nuclear receptor co-repressor 2 (NCOR2). It is filed as functional.

For assay [9], the target named is Photoreceptor-specific nuclear receptor (Homo sapiens, UniProt Q9Y5X4). In words: ligands suppressing NR2E3 nuclear receptor activity – biochemical, TR-FRET, dose response (AID 463256). It is filed as functional.
For assay [10], the target named is T2, Apoptotic protease-activating factor 1 (Homo sapiens, UniProt O14727).
T2 sequence (O14727 whole entry): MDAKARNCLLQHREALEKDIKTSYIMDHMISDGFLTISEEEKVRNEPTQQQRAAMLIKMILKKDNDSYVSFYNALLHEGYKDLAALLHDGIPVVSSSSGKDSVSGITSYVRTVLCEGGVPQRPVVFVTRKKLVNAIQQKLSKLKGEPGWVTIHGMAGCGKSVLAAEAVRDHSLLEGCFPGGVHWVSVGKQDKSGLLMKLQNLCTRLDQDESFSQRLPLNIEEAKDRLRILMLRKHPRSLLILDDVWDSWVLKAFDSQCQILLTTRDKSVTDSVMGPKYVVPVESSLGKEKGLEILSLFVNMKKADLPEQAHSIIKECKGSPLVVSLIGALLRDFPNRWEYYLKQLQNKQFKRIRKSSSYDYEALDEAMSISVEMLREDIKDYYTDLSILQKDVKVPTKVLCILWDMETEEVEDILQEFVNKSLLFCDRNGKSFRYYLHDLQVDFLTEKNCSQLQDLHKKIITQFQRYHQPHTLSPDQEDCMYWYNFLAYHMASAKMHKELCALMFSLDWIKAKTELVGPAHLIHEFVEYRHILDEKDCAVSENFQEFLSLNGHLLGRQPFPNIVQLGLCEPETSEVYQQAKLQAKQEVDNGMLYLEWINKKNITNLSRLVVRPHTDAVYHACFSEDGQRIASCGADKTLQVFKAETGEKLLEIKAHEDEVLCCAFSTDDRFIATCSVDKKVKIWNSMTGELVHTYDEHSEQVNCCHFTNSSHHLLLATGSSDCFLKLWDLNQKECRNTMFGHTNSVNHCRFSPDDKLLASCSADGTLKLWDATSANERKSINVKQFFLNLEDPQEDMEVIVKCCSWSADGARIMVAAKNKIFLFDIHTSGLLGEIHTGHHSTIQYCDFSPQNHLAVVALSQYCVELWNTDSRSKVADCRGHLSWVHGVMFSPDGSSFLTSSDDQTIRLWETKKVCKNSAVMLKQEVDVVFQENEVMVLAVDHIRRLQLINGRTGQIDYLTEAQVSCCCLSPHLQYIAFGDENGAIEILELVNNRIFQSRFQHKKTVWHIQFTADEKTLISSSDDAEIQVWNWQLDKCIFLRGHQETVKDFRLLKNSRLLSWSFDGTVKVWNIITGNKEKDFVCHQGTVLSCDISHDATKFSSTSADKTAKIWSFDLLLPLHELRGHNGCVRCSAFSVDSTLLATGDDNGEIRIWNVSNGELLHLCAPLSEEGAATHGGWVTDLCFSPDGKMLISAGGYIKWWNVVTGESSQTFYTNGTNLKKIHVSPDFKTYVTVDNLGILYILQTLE
It is filed as functional.

Assay [11] concerns the target T2, Apoptotic protease-activating factor 1. As to the kind of experiment: SAR analysis of small molecule inhibitors of Apaf-1 in a Fluorescent assay. In kind it is functional. The following applies: read-out: IC50_Mean.
The nature of assay [12]: viability loss in HEK293T cells – cell-based, cherry-picks, cytotoxicity control for HIV Vif inhibitor project, dose response (AID 652208). In kind it is functional.
The subject of assay [13] is HEK293. In words: cells. Conditions: Homo sapiens.
The subject of assay [14] is HEK293. As to the kind of experiment: cells. The following applies: Homo sapiens. This is another data set of the same source.

T1 sequence (Q92731 whole entry): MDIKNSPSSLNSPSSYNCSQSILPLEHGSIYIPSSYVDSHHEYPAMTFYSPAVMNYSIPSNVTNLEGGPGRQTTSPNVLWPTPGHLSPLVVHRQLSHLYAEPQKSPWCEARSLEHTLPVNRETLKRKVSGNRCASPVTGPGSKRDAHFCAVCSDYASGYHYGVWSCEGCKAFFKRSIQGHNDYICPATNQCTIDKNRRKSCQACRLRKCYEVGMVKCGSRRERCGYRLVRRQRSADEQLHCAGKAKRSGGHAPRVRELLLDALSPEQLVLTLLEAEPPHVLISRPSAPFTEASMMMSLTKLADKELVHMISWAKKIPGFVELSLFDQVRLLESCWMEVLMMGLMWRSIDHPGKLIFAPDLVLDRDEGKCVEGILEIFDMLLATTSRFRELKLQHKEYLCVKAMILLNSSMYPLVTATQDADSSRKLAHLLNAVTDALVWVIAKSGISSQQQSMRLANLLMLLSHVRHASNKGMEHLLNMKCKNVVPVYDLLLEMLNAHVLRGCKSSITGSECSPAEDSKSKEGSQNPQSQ
Chain of Protein-tyrosine kinase 2-beta (Q14289 whole entry): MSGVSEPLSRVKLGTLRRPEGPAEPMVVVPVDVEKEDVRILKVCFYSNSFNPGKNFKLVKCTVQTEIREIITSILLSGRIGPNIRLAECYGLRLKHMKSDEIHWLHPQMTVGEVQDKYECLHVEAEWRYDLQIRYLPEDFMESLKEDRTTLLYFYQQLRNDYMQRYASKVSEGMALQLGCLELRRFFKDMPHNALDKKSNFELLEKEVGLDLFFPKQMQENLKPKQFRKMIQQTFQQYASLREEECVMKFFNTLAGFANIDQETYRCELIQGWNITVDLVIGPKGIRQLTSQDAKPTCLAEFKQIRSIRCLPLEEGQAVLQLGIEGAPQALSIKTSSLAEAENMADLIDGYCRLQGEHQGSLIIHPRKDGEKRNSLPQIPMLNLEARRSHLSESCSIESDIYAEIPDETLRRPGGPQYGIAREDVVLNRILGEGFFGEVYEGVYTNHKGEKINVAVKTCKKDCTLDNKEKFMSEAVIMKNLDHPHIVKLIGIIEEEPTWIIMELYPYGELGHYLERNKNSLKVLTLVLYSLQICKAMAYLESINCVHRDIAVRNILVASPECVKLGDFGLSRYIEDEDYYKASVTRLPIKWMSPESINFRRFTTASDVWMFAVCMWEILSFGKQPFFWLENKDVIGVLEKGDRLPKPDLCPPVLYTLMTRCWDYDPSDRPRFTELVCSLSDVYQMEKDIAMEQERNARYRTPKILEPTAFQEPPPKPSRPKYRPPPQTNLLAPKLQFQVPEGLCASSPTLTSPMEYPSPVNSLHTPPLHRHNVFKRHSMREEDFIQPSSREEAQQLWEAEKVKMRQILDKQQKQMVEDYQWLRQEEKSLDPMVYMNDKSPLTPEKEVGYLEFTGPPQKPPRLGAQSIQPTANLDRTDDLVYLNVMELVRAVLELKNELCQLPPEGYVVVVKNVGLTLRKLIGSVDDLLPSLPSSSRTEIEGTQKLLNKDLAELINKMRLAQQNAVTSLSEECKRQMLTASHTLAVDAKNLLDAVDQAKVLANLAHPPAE
Chain of Peroxisome proliferator-activated receptor gamma/Nuclear receptor corepressor 2 (P37231 whole entry): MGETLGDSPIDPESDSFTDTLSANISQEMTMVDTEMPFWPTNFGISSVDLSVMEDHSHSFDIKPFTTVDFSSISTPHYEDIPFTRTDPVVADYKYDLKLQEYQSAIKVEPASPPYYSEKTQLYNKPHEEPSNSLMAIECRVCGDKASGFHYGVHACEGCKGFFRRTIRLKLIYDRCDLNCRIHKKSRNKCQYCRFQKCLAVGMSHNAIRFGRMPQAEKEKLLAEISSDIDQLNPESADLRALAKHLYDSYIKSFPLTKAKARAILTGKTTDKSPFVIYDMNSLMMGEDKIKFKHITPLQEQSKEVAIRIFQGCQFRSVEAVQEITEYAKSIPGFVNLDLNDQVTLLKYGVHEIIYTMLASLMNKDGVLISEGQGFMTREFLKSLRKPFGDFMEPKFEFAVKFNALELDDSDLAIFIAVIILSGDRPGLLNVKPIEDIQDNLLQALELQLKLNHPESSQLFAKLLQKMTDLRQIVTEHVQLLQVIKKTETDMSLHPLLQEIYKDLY
Chain of Peroxisome proliferator-activated receptor gamma/Nuclear receptor corepressor 2 (Q9Y618 whole entry): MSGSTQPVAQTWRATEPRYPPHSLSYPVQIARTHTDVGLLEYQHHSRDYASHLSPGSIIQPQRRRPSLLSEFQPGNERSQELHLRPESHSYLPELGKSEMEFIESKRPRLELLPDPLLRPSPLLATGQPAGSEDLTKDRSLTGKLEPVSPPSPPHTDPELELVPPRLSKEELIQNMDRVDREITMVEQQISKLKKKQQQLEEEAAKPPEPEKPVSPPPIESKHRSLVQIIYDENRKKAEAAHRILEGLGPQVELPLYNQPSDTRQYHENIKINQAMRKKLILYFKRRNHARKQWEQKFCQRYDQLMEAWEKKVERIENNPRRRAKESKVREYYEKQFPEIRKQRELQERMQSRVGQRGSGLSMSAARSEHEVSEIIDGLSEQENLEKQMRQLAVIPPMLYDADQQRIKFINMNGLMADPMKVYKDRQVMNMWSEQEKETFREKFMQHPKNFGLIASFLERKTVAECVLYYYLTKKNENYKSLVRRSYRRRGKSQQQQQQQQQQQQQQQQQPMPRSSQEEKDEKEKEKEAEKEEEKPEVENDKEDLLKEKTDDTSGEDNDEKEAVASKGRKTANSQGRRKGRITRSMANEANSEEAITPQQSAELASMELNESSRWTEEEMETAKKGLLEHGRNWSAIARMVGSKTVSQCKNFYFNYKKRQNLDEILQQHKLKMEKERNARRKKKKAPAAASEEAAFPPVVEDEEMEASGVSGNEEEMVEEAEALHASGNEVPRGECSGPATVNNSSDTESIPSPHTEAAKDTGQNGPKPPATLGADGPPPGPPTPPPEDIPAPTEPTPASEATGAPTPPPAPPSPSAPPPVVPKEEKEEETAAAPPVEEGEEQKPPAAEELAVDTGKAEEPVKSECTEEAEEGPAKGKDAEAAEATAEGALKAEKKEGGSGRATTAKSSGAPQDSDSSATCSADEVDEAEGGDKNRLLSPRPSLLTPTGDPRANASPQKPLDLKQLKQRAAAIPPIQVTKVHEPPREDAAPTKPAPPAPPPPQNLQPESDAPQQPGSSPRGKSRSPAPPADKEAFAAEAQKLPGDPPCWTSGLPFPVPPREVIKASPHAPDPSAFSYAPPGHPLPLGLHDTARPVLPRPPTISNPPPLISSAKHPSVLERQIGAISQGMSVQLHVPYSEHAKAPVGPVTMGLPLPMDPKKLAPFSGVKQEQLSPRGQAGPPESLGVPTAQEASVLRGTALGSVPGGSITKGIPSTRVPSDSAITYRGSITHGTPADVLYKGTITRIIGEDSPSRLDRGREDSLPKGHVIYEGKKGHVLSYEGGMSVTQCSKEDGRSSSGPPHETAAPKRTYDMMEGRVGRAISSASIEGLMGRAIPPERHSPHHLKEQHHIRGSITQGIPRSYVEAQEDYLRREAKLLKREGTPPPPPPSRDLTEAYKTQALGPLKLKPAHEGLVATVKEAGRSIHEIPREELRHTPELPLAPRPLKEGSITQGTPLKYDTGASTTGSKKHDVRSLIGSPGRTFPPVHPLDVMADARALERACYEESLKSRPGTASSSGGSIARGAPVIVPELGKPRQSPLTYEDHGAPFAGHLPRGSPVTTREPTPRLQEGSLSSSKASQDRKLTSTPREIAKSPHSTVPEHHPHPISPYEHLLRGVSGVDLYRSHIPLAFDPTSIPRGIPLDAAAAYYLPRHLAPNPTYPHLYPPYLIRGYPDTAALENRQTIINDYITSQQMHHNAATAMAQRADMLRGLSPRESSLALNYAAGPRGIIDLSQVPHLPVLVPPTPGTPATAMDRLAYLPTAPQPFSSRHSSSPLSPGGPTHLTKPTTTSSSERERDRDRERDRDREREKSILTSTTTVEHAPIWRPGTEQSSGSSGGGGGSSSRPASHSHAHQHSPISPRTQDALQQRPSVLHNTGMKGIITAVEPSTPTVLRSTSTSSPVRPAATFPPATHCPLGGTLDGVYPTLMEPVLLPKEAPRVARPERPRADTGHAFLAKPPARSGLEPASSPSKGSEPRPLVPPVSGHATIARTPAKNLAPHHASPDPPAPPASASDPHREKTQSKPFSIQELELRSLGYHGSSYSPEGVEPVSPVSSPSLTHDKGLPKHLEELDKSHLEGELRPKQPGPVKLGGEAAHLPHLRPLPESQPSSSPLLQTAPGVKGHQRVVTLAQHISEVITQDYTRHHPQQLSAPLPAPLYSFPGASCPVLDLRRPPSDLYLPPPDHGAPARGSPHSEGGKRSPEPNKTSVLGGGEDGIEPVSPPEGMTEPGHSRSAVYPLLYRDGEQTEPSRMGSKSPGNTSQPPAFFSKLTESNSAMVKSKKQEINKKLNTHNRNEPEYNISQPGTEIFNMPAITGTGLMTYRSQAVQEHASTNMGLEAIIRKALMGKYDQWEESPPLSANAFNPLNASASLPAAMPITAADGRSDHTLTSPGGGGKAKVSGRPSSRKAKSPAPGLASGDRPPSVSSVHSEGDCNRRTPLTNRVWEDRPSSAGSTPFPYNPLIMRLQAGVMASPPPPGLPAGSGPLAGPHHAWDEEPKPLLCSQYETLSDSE
Chain of Photoreceptor-specific nuclear receptor (Q9Y5X4 whole entry): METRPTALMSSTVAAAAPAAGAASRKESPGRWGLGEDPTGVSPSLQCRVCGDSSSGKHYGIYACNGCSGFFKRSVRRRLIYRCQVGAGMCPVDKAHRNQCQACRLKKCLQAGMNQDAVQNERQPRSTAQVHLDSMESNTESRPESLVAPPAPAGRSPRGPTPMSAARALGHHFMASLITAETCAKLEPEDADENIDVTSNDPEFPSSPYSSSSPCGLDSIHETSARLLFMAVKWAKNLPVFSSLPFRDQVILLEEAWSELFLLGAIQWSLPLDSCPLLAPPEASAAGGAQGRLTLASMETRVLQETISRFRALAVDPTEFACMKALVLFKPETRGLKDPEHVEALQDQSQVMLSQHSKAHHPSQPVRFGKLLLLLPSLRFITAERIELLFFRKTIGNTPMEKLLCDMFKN

As for `O=C(Nc1ccc(-c2nc3cc(NC(=O)c4cccs4)ccc3[nH]2)cc1)c1cccs1`, the EC50 in assay [1] was 0.225 µM (active); in [2] it was 40.1 µM (active); in assay [3], 0.275 µM (active); in the assay on HEK293 [13], > 59.6 µM (inactive); with HEK293 [14], > 59.6 µM (inactive). The IC50 in assay [4] is 64.4 µM (not active); at Estrogen receptor beta [5], 2.61 µM (active); on Estrogen receptor beta [6], > 109 µM (not active); in assay [7] it was 3.97 µM (active); in [8] it was 10.5 µM (not active); in assay [9], 9.36 µM (active). In addition, the IC50 is 8.21 µM (active) in assay [10] and 8.37 µM (active) in assay [11]. Besides, the AC50 in [12] was 23.1 µM (active).

The values above are taken from ChEMBL document CHEMBL1201862, “PubChem BioAssay data set” (2004).
